The source of these data is patent publication EP4810483A1, “6- AND 5-HETEROARYL DERIVATIVES AND USE THEREOF” (CMS Research & Development Pte. Ltd., priority 2023, dated 2025).

Series [1] in a line: Pharmacokinetic evaluation in mice (IV and PO). Format: in vivo. The conditions noted are these: mouse, plasma, CD-1 mice; for half-life: IV, read-out: Half-life T1/2 (IV) (converted); for AUC(0-t): PO, read-out: Area under the concentration-time curve AUC0-last PO; for bioavailability: read-out: Bioavailability F; for clearance: read-out: Clearance CL; for Cmax: read-out: Peak plasma concentration Cmax; for Vd: read-out: Volume of distribution Vdss. Here is the method:
Test Method 2: Pharmacokinetic Evaluation in Mice
Assay method: Test compounds were mixed with 5% DMSO / 60% polyethylene glycol (PEG400) / 35% water, vortexed and sonicated to obtain a clear 0.2 mg/mL solution, which was then filtered through a microporous membrane before use. Male CD-1 mice weighing 25-35 g were selected. The candidate compound solution was administered intravenously at a dose of 1 mg/kg. The candidate compound solution was orally administered at a dose of 5 mg/kg after fasting. Blood samples (25 µL each) were collected at 0.083, 0.25, 0.5, 1, 2, 4, 8, 12 and 24 hours after administration, and placed into commercial anticoagulant tubes pre-containing EDTA-K2. The tubes were centrifuged for 10 minutes to separate plasma, which was then stored at -60°C. The content of the target compound in plasma samples was determined by LC/MS/MS method, and pharmacokinetic parameters were calculated using Phoenix WinNonlin software (Pharsight, USA).
Tlast: time of the last detection point. AUC0-last: (Area Under the Concentration-Time Curve) refers to the area enclosed by the plasma drug concentration curve and the time axis. F (Bioavailability) is a measure of the rate and extent to which a drug is absorbed into the systemic circulation, serving as a critical indicator for evaluating the degree of drug absorption. […]

In another series the target is T1, hKCNQ2/3 (Homo sapiens, UniProt O43525+O43526).
T1 construct: expressed in transfected cells; host or cells: CHO
In words: cell-based. An excerpt:
Test Method 1: hKCNQ2/3 Thallium Flux Assay
Test Objective: To test the in vitro concentration-response relationship of compounds using FLIPR thallium flux assay in CHO cell lines stably expressing hKCNQ2/3.
According to the split ratio, the cells were transferred to another T-75 flask containing complete cell growth medium. Note: To maintain logarithmic growth, the cells should be kept in a subconfluent monolayer state. Based on the cell doubling time, the cells were passaged every 2-3 days.
• (1) Day 1 - Cell preparation: Cells were digested as described above, and cell density and viability were determined using a Cell Countess. The volume of the single-cell suspension was adjusted with complete cell growth medium. Then, hKCNQ2/3_CHO cells were seeded onto PDL-precoated 384-well plates at a density of approximately 20,000 cells/well (30 µL/well). The plates were then incubated overnight in a 37°C, 5% CO2 humidified air incubator. • (2) Day 2 - Compound preparation: Test compounds were diluted with dimethyl sulfoxide (DMSO) to stock concentrations and stored in a -20°C freezer. A compound addition program was set up on the ECHO liquid handler, and compounds were added to the plates using the ECHO liquid handler. Retigabine (RTG) was used as a positive control at a highest concentration of 100 µM with 3-fold serial dilutions for a total of 9 doses. Buffer containing 5 mM K^+ and 1 mM Tl^+ was added to the plates. Notes: 1) K2SO4 and Tl2SO4 were prepared in 1× chloride-free buffer. Depending on the voltage-gated potassium channel involved, the concentrations of Tl^+ and K^+ should be adjusted. Tl^+ concentration is approximately 0.5-5 mM, and K^+ concentration is approximately 5-30 mM. 2) Each 1 mM solution of K2SO4 and Tl2SO4 contains 2 mM K^+ and Tl^+; the final concentration should be calculated based on the ion concentration. 3) TlCl readily precipitates and a chloride-free buffer is required. • (3) Day 2 -Assay testing: Once the cells reached the desired confluence, the cell assay plates were removed from the incubator. Assay buffer and diluted Tl^+ dye (Molecular Devices # R8222) were prepared. The medium was discarded using a Bravo liquid handler, and 25 µL of Tl^+ dye was added to each well. After 1 hour of incubation, the cell assay plates, composite plates and FLIPR tips were placed in the FLIPR^TETRA (Molecular Devices, USA) for FLIPR detection. After setting up the tips, baseline readings were taken for 60 seconds, then 12.5 µL was added from the composite plate (3×) to the cell assay plate, and data were recorded for at least 5 minutes. • (4) Data processing: Maximum signals were generated by the FLIPR software. […] Data quality control: S/B > 2.00, Z factor > 0.50.
• (1) Day 1 - Cell preparation: Cells were digested as described above, and cell density and viability were determined using a Cell Countess. The volume of the single-cell suspension was adjusted with complete cell growth medium. Then, hKCNQ2/3_CHO cells were seeded onto PDL-precoated 384-well plates at a density of approximately 20,000 cells/well (30 µL/well). The plates were then incubated overnight in a 37°C, 5% CO2 humidified air incubator. • (2) Day 2 - Compound preparation: Test compounds were diluted with dimethyl sulfoxide (DMSO) to stock concentrations and stored in a -20°C freezer. A compound addition program was set up on the ECHO liquid handler, and compounds were added to the plates using the ECHO liquid handler. Retigabine (RTG) was used as a positive control at a highest concentration of 100 µM with 3-fold serial dilutions for a total of 9 doses. Buffer containing 5 mM K^+ and 1 mM Tl^+ was added to the plates. Notes: 1) K2SO4 and Tl2SO4 were prepared in 1× chloride-free buffer. Depending on the voltage-gated potassium channel involved, the concentrations of Tl^+ and K^+ should be adjusted. Tl^+ concentration is approximately 0.5 mM -5 mM, and K^+ concentration is approximately 5 mM -30 mM.

Series [2] concerns maximal electroshock-induced epilepsy model. Kind of series: Maximal electroshock-induced epilepsy model, behavioral pharmacodynamics. It counts as in vivo. The conditions noted are these: dose 5 mg/kg, oral, one hour before electrical stimulation; male CD-1 mice. An excerpt: Assay Example 2: Evaluation of the behavioral pharmacodynamics of the test compounds in a maximal electroshock-induced epilepsy model
This study used behavioral tests in male CD-1 mice to investigate the effects of test compounds on acute epileptic seizures behavior induced by maximal electroshock.
Male CD-1 mice (25 to 35g) were used as the experimental animals and fed with standard feed (Beijing Vital River Laboratory Animal Technology Co., Ltd.).
After arriving at the animal facility, the experimental animals needed to acclimatize for at least one week. The mice were observed daily for vital signs, and randomly divided into groups according to their body weights one day before the drug administration. One hour before the electrical stimulation, different dosages of the test compound were orally administered to each group. On the day of the assay, the male CD-1 mice in each group were anesthetized locally at the cornea with 2% lidocaine. Then, silver bipolar electrodes were used to electrically stimulate the cornea of the mice with 18 mA, 60 Hz, a pulse width of 0.6 ms, and a stimulation time of 1 s to induce seizures. Subsequently, the latency of seizures and the duration of limb rigidity in mice after the electrical stimulation were observed, and the protection rate from seizures for each group was statistically analyzed.

The mark [3] stands for this setting: agonistic effect, CHO cells stably expressing hKCNQ2/3, FLIPR thallium flux, read-out: EC50.

Where two headings read alike, the source gives them in different places.

T1 sequence (O43526 whole entry): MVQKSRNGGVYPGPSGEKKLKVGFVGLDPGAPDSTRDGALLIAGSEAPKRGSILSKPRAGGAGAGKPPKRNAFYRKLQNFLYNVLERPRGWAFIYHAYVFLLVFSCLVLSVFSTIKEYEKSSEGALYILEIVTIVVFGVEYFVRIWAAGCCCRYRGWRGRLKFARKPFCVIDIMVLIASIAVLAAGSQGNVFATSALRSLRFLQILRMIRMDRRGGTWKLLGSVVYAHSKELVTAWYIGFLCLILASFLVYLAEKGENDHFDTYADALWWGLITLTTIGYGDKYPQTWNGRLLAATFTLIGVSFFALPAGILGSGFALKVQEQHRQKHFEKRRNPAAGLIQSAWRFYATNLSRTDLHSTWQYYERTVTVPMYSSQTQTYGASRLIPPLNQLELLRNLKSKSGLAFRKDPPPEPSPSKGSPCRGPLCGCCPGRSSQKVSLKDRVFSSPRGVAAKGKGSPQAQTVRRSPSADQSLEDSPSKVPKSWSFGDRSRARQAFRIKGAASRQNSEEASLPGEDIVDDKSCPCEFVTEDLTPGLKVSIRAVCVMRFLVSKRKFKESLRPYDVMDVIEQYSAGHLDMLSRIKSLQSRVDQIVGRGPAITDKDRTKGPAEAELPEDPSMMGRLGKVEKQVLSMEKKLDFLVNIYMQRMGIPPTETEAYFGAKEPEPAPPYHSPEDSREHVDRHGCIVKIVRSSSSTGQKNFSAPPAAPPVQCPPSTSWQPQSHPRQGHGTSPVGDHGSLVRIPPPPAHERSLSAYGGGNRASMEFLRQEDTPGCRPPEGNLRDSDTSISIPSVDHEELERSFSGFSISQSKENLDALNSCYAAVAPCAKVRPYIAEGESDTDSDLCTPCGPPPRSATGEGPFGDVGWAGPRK
T1 sequence (O43525 whole entry): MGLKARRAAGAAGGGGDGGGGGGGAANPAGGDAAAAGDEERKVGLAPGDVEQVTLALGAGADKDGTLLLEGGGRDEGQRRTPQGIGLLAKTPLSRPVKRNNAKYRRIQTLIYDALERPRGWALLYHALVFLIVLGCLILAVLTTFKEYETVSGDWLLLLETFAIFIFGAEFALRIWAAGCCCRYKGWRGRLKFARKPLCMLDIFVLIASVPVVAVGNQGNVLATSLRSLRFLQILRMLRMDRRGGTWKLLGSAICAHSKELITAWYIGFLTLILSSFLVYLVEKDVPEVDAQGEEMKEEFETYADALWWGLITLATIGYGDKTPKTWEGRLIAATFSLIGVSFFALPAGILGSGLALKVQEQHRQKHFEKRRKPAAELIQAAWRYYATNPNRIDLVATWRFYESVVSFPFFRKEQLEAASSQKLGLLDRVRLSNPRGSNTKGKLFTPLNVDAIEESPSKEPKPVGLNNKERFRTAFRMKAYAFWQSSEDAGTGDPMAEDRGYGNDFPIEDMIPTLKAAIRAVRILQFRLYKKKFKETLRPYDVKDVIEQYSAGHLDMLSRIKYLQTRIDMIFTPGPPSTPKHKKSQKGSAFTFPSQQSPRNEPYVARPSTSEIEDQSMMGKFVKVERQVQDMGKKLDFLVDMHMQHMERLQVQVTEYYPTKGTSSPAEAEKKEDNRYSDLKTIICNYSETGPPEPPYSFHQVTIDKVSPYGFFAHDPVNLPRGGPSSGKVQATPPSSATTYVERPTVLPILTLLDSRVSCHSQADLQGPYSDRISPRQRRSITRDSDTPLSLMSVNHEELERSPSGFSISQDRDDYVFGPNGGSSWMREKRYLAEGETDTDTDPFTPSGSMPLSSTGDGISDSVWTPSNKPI

For `CC(C)(C)CC(=O)Nc1nc2c(F)cc(Nc3ccc(F)cc3)cc2n1C1CCC1` [Compound 4], in series [1] (dose IV:0.5, PO:2 mg/kg), the half-life was 1.2 h, the AUC(0-t) turned out to be 2.98 µM·h, the bioavailability came to 64.2% and the clearance was 17.9 mL/min/kg. Moreover, in series [1] (dose IV:0.5, PO:2 mg/kg), the Cmax was found to be 548 nM and the Vd was 2.14 L/kg.
At hKCNQ2/3, `Cc1c(NC(=O)CC(C)(C)C)n(C)c2cc(Nc3ccc(F)cn3)ccc12` [Compound 11] had an EC50 of 200 nM. In series [1] (dose IV:0.5, PO:2 mg/kg), the half-life was 0.7 h, the AUC(0-t) was determined as 1.11 µM·h, the bioavailability is 62.2% and the clearance turned out to be 50.3 mL/min/kg. In series [1] (dose IV:0.5, PO:2 mg/kg), the Cmax worked out at 524 nM and the Vd came out at 2 L/kg.
With `Cc1c(NC(=O)C2CC2)n(C)c2cc(Nc3ccc(F)cc3)ccc12` [Compound 13], on hKCNQ2/3 (setting [3]), the EC50 amounted to 500 nM.
The same measure, in the same setting: as for `CCC(=O)Nc1c(C)c2ccc(Nc3ccc(F)cc3)cc2n1C` [Compound 16], the figure is 700 nM; as for `Cc1c(NC(=O)C2CCCC2)n(C)c2cc(Nc3ccc(F)cn3)ccc12` [Compound 21], 220 nM; as for `Cc1c(NC(=O)C2CCC2)n(C)c2cc(Nc3ccc(F)cn3)ccc12` [Compound 22], 430 nM.
Same read-out and setting: as for `Cc1c(NC(=O)CC2(C)CC2)n(C)c2cc(Nc3ccc(F)cn3)ccc12` [Compound 28], the figure is 560 nM; as for `Cc1ccc(Nc2ccc3c(C)c(NC(=O)CC(C)(C)C)n(C)c3c2)nc1` [Compound 29], 410 nM; as for `Cc1c(NC(=O)CC(C)(C)C)n(C)c2cc(Nc3ccc(Cl)cn3)ccc12` [Compound 30], 210 nM.
Consider `Cc1nc(Nc2ccc3c(C)c(NC(=O)CC4(C)CC4)n(C)c3c2)ccc1F` [Compound 36], for which the response on hKCNQ2/3 was half-maximal at 220 nM (EC50). Further, in series [2], the “Seizure incidence (%)” value came to 0%. Further, in series [1] (dose IV:1, PO:5 mg/kg), the half-life was 1.7 h, the AUC(0-t) came out at 29.5 µM·h, the bioavailability worked out at 92.7% and the clearance came out at 6.9 mL/min/kg. In series [1] (dose IV:1, PO:5 mg/kg), the Cmax is 4750 nM and the Vd came to 0.8 L/kg.
In the case of `Cc1c(NC(=O)CC(C)(C)C)n(C)c2cc(Nc3ncc(F)cn3)ccc12` [Compound 38], the EC50 on hKCNQ2/3 (setting [3]) turned out to be 820 nM.
